Test results reported in ChEMBL document CHEMBL6109134, “Discovery of AMG 193, an MTA-Cooperative PRMT5 Inhibitor for the Treatment of MTAP-Deleted Cancers” (J Med Chem, 2025).

Legend:
[1] = Protein binding in mouse plasma assessed as unbound fraction by ultracentrifugation; details: mouse plasma
[2] = Oral bioavailability in CD-1 mouse at 5 mg/kg administered as 1% Tween 80, 2% HPMC, 97% water/methane sulfonic acid, pH 2.0 formulation; format: ADME, organism-based; details: in vivo
[3] = Metabolic stability in human liver microsomes assessed as intrinsic clearance at 0.5 uM incubated for 40 mins in presence of NADPH; format: ADME, Microsome; details: read-out: CLH
[4] = molecular target: CYP3A4 (Homo sapiens, UniProt P08684); assay: in vitro; details: human liver microsomes, probe midazolam
[5] = Clearance in CD-1 mouse at 1 mg/kg, iv; details: in vivo
[6] = molecular target: T1, Nuclear receptor subfamily 1 group I member 2 (Homo sapiens, UniProt O75469); assay: Activation of human PXR in human HepG2 cells co-transfected with CYP3A4-luciferase at 10 uM incubated for 1 day relative to control; details: hepg2, 24 h
T1 sequence (O75469 whole entry): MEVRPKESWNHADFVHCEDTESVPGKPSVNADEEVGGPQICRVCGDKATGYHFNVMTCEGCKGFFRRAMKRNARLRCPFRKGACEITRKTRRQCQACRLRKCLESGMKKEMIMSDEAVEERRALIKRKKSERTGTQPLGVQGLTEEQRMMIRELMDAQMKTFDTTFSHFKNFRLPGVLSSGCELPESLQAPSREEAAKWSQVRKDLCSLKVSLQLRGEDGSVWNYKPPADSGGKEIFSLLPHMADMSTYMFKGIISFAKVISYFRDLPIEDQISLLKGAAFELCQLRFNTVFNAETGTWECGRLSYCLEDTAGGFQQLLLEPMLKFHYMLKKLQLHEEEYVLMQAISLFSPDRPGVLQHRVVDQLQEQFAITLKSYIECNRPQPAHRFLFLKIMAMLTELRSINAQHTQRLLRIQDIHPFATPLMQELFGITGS

[7] = test system: HCT-116; assay: Antiproliferative activity against MTAP-deleted human HCT-116 cells assessed as effect on cell viability incubated for 6 days by Celltiter-Glo luminescent cell viability assay; format: functional, cell-based; details: HCT-116, 144 h
[8] = test system: human MDR1 (P-gp); assay: Efflux ratio of permeability across basolateral to apical side over apical to basolateral side in MDCK cells transfected with human MDR1 in absence of elacridar; details: dog
[9] = molecular target: PRMT5/MEP50 complex (Homo sapiens, UniProt O14744)
Description: Inhibition of PRMT5/MEP50 (unknown origin) preincubated with compound for 24 hrs in presence of SAM and MTA followed by Histone H4 (1-21)-Lys(Biotin) peptide addition and measured after 2 hrs by MTase-Glo reagent based assay

[10] = Half-life in CD-1 mouse at 1 mg/kg, iv; format: ADME, organism-based; details: in vivo
[11] = test system: HCT-116; assay: Antiproliferative activity against human HCT-116 cells harboring wildtype MTAP assessed as effect on cell viability incubated for 6 days by Celltiter-Glo luminescent cell viability assay; format: functional, cell-based; details: HCT-116, 144 h
[12] = in vivo; details: CD-1, mouse, iv, 1 mg/kg
[13] = Unbound clearance in CD-1 mouse at 1 mg/kg, iv; format: ADME, organism-based; details: in vivo
[14] = Metabolic stability in mouse liver microsomes assessed as intrinsic clearance at 0.5 uM incubated for 40 mins in presence of NADPH; format: ADME, Microsome; details: read-out: CLH

PRMT5/MEP50 complex, sequence (O14744 whole entry): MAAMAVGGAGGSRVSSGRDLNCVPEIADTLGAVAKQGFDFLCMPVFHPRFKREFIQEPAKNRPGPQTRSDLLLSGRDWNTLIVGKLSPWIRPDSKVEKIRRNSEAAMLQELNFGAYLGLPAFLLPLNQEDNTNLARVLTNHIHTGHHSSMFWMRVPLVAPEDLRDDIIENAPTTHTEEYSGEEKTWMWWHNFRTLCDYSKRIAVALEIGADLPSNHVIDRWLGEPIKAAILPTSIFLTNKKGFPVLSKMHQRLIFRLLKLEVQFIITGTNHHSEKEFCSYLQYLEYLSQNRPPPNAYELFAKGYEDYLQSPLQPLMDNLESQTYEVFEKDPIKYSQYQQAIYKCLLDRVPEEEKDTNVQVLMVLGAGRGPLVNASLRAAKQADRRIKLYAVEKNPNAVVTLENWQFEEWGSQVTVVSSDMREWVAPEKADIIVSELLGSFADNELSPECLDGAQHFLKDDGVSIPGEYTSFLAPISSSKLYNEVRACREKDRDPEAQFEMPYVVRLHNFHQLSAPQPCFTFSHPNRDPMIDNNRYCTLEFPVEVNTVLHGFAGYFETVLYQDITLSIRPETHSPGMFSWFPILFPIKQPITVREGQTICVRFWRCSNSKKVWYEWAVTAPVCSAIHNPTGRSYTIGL
PRMT5/MEP50 complex, sequence (Q9BQA1 whole entry, further chain): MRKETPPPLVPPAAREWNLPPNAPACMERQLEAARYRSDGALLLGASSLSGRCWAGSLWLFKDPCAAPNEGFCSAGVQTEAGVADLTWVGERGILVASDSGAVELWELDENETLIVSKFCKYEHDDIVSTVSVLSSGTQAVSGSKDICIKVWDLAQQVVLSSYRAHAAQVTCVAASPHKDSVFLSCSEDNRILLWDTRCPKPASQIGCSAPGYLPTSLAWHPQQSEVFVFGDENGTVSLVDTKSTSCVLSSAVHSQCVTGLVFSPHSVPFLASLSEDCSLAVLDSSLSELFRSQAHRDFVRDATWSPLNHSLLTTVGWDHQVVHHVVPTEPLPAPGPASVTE
CYP3A4, sequence (P08684 whole entry): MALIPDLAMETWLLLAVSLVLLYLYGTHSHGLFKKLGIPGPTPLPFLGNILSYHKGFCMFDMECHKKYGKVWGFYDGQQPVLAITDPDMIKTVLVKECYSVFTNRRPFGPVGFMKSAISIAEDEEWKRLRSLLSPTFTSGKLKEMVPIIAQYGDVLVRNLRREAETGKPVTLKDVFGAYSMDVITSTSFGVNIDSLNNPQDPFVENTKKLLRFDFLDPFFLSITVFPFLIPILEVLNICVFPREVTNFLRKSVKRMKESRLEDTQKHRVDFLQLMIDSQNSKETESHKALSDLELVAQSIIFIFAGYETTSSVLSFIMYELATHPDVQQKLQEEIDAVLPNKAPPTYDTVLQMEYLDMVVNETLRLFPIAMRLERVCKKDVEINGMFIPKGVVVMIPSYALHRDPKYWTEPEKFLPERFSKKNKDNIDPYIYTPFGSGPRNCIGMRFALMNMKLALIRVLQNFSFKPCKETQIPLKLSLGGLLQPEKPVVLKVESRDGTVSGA

Compound: C[C@H]1OCc2c1c(N)nc1cnc(C(=O)N3CCOC[C@@H]3c3ccc(C(F)(F)F)cc3)cc21
- fraction unbound [1]: 0.09
- bioavailability [2]: 82%
- microsomal CLint at 0.5 µM [3]: 26 µL/min/mg
- inhibition at 30 min, 10 µM [4]: < 20%
- clearance [5]: 13.3 mL/min/kg
- Activity [6]: 80%
- IC50 [7]: 64 nM
- efflux ratio [8]: 7
- Ki [9]: < 0.1 nM
- half-life [10]: 1.6 h
- IC50 [11]: 2460 nM
- Vd [12]: 1.8 L/kg
- CL free [13]: 147 mL/min/kg
- microsomal CLint at 0.5 µM [14]: 51 µL/min/mg

Compound: CN(Cc1ccc(C(F)(F)F)cn1)C(=O)c1ccc2nc(N)c3c(c2c1)COC3
- fraction unbound [1]: 0.21
- bioavailability [2]: 64%
- microsomal CLint at 0.5 µM [3]: 14 µL/min/mg
- inhibition at 30 min, 10 µM [4]: < 20%
- clearance [5]: 8.33 mL/min/kg
- Activity [6]: < 20%
- IC50 [7]: 426 nM
- efflux ratio [8]: 23
- Ki [9]: 0.1 nM
- half-life [10]: 2.2 h
- IC50 [11]: 8790 nM
- Vd [12]: 0.9 L/kg
- CL free [13]: 40 mL/min/kg
- microsomal CLint at 0.5 µM [14]: 19 µL/min/mg

Compound: Nc1nc2ccc(C(=O)N3CCOC[C@@H]3c3ccc(C(F)(F)F)nc3)cc2c2c1COC2
- fraction unbound [1]: 0.27
- bioavailability [2]: 46%
- microsomal CLint at 0.5 µM [3]: 14 µL/min/mg
- inhibition at 30 min, 10 µM [4]: < 20%
- clearance [5]: 6.67 mL/min/kg
- Activity [6]: < 20%
- IC50 [7]: 533 nM
- efflux ratio [8]: 36
- Ki [9]: 0.2 nM
- half-life [10]: 2.5 h
- IC50 [11]: 8530 nM
- Vd [12]: 1 L/kg
- CL free [13]: 25 mL/min/kg
- microsomal CLint at 0.5 µM [14]: 17 µL/min/mg

Compound: C[C@H](c1ncccn1)N(Cc1ccc(C(F)(F)F)cn1)C(=O)c1ccc2nc(N)c3c(c2c1)COC3
- fraction unbound [1]: 0.23
- bioavailability [2]: 8%
- microsomal CLint at 0.5 µM [3]: 129 µL/min/mg
- inhibition at 30 min, 10 µM [4]: 4%
- clearance [5]: 38.3 mL/min/kg
- Activity [6]: 13%
- IC50 [7]: 14 nM
- efflux ratio [8]: 63
- Ki [9]: < 0.1 nM
- half-life [10]: 0.9 h
- IC50 [11]: 78 nM
- Vd [12]: 1.4 L/kg
- CL free [13]: 167 mL/min/kg
- microsomal CLint at 0.5 µM [14]: 278 µL/min/mg

Compound: Nc1nc2ccc(C(=O)N3CCOC[C@@H]3c3ccc(C(F)(F)F)cn3)cc2c2c1COC2
- fraction unbound [1]: 0.18
- bioavailability [2]: 78%
- microsomal CLint at 0.5 µM [3]: 14 µL/min/mg
- inhibition at 30 min, 10 µM [4]: < 20%
- clearance [5]: 6.67 mL/min/kg
- Activity [6]: < 20%
- IC50 [7]: 395 nM
- efflux ratio [8]: 33
- Ki [9]: < 0.1 nM
- half-life [10]: 2.1 h
- IC50 [11]: 9430 nM
- Vd [12]: 1.2 L/kg
- CL free [13]: 36.7 mL/min/kg
- microsomal CLint at 0.5 µM [14]: 16 µL/min/mg
